According to publication PMC12697872, “Rethinking the AI Paradigm for Solubility Prediction of Drug‑Like Compounds with Dual‐Perspective Modeling and Experimental Validation” (Advanced Science, 2025):
In brackets after ≈: the same amount, converted by molar mass. Several values for one entry are separate records, joined by “and”; a condition that tells them apart may be missing. Identical values can stand only once. Like-named read-outs stand apart in the source and are kept apart here.

Key:
[1] = Saturation shake-flask aqueous solubility, gravimetric determination; conditions: for Experimental Class: European Pharmacopoeia solubility class from the experimental solubility; for solubility thermodynamic at 48 h: water (saturated aqueous solution); for solubility thermodynamic at 48 h / solubility at 48 h: thermodynamic from solid; for solubility at 48 h: Experimental Log S
Protocol: Excess solid drug was added to a vial to prepare supersaturated aqueous solutions. The vial was placed in a constant temperature mixer (Titan Technology, SD2‐100) at 25 °C and shaken for 48 h at a speed of 500 rpm. […] After equilibration, the solution was centrifugated at room temperature at 8000 rpm, and the supernatant was collected. The concentration of the supernatant was determined using the gravimetric method. A measured volume of the supernatant (e.g. 1 mL) was transferred to a pre‐weighted empty vial, dried in a vacuum oven at 70 °C, and re‐weighed. The difference between the initial and final weights represents the drug content in the saturated solution. Each compound was tested in triplicate to ensure accuracy.

[2] = cited from earlier work; for LogS(mol/L): SC2-2 dataset (Second Solubility Challenge, loose subset), aqueous solubility; for Class: SC2-2 dataset, aqueous solubility class 0-6
[3] = cited from earlier work; for LogS(mol/L): SC2-1 dataset (Second Solubility Challenge, tight subset), aqueous solubility; for Class: SC2-1 dataset, aqueous solubility class 0-6
[4] = water, 25 °C, averaged over triplicate
[5] = water, 25 °C, shaken 48 h, triplicate, Log S = base-10 logarithm of moles per liter
[6] = water, 25 °C, single replicate of triplicate

SMILES | LogS(mol/L) [2] [mol/L] | Class [2] | LogS(mol/L) [3] [mol/L] | Class [3] | other results
CC(=C(CCO)SSC(CCO)=C(C)N(C=O)Cc1cnc(C)nc1N)N(C=O)Cc1cnc(C)nc1N [Thiamine disulfide] | – | – | – | – | Experimental Class [1]: 4 (Slightly soluble (4)); Experimental Log S ([1]; single replicate of triplicate): -2.3811 and -2.3222; Experimental S ([1]; single replicate of triplicate): 1.9700 and 2.3400 and 2.6800; solubility thermodynamic at 48 h ([1]; 25 °C, water): 2330 µg/mL (≈ 4.14 mM); solubility at 48 h [1, 4]: 4.11 mM (≈ 2310 µg/mL); solubility at 48 h [1, 5]: 4.11 mM (≈ 2310 µg/mL); solubility at 48 h [1, 6]: 3.5 mM (≈ 1970 µg/mL)
Nc1nc2c(c(=O)[nH]1)CC=N2 [7‐Deazaguanine] | – | – | – | – | Experimental Class [1]: 4 (Slightly soluble (4)); solubility at 48 h [1, 5]: 16.6 mM (≈ 2490 µg/mL)
N[C@@H](Cc1ccc(I)cc1)C(=O)O [4‐Iodo‐L‐phenylalanine] | – | – | – | – | Experimental Class [1]: 5 (Very slightly soluble (5)); solubility at 48 h [1, 5]: 1.81 mM (≈ 526 µg/mL)
CC(=O)SCC(Cc1ccccc1)C(=O)NCC(=O)OCc1ccccc1 (stereo not shown) [Racecadotril, reference compound] | – | – | – | – | Experimental Class [1]: 6 (Practically insoluble or insoluble (6)); Experimental Log S ([1]; single replicate of triplicate): -4.1710 and -3.8226 and -3.9232; Experimental S ([1]; single replicate of triplicate): 0.0260 and 0.0580 and 0.0460; solubility thermodynamic at 48 h ([1]; 25 °C, water): 43.3 µg/mL (≈ 0.112 mM); solubility at 48 h [1, 4]: 0.107 mM (≈ 41.1 µg/mL); solubility at 48 h [1, 5]: 0.107 mM (≈ 41.1 µg/mL)
COC1C=COC2(C)Oc3c(C)c(O)c4c(c3C2=O)C2=NC3(CCN(CC(C)C)CC3)NC2=C(NC(=O)C(C)=CC=CC(C)C(O)C(C)C(O)C(C)C(OC(C)=O)C1C)C4=O (stereo not shown) | -4.09 | 6 (Practically insoluble or insoluble (6)) | – | – | –
CC(C)C[C@H]1C(=O)N2CCC[C@H]2[C@]2(O)O[C@](NC(=O)[C@@H]3C=C4c5cccc6[nH]c(Br)c(c56)C[C@H]4N(C)C3)(C(C)C)C(=O)N12 | -5.5 | 6 (Practically insoluble or insoluble (6)) | – | – | –
CC[C@]1(c2ccccc2)OC[C@H]([C@@H]2CCCCN2)O1 | -1.96 | 4 (Slightly soluble (4)) | – | – | –
c1ccc2[nH]c(-c3cscn3)nc2c1 [c1ccc2[nH]c(-c3cscn3)nc2c1] | – | 6 (Practically insoluble or insoluble (6)) | – | – | –
O=C(c1ccc(OCCN2CCCCC2)cc1)c1c(-c2ccc(O)cc2)sc2cc(O)ccc12 | – | 6 (Practically insoluble or insoluble (6)) | – | – | –
CC(C)N=c1cc2n(-c3ccc(Cl)cc3)c3ccccc3nc-2cc1Nc1ccc(Cl)cc1 | -9.05 | 6 (Practically insoluble or insoluble (6)) | – | – | –
CC#C[C@]1(O)CC[C@H]2[C@@H]3CCC4=CC(=O)CCC4=C3[C@@H](c3ccc(N(C)C)cc3)C[C@@]21C | -5.22 | 6 (Practically insoluble or insoluble (6)) | – | – | –
CCC(C)n1ncn(-c2ccc(N3CCN(c4ccc(OC[C@H]5CO[C@](Cn6cncn6)(c6ccc(Cl)cc6Cl)O5)cc4)CC3)cc2)c1=O (stereo partly shown) | -8.98 | 6 (Practically insoluble or insoluble (6)) | – | – | –
COc1cc(/C=C/C(=O)CC(=O)/C=C/c2ccc(O)c(OC)c2)ccc1O | -5.36 | 6 (Practically insoluble or insoluble (6)) | – | – | –
O=C(O)c1cc(-c2ccc(F)cc2F)ccc1O [O=C(O)c1cc(-c2ccc(F)cc2F)ccc1O] | -4.99 | 6 (Practically insoluble or insoluble (6)) | – | – | –
O=c1[nH]cnc2c1ncn2[C@H]1CC[C@@H](CO)O1 [O=c1[nH]cnc2c1ncn2[C@H]1CC[C@@H](CO)O1] | – | 3 (Sparingly soluble (3)) | – | – | –
N[C@@H](Cc1ccc(I)cc1)C(=O)O [4-Iodo-L-phenylalanine] | – | – | – | – | Experimental Log S ([1]; averaged over triplicate): -2.7425; Experimental S ([1]; averaged over triplicate): 0.5633; Experimental Log S ([1]; single replicate of triplicate): -2.6716 and -2.9727 and -2.5832; Experimental S ([1]; single replicate of triplicate): 0.6200 and 0.3100 and 0.7600
Cc1cc(=O)oc2cc(O[C@@H]3O[C@H](CO)[C@@H](O)[C@H](O)[C@H]3O)ccc12 [4-methylumbelliferyl β-D-glucoside] | – | – | – | – | Experimental Log S ([1]; averaged over triplicate): -1.8858; Experimental S ([1]; averaged over triplicate): 4.4033; Experimental Log S ([1]; single replicate of triplicate): -1.8647 and -1.9030 and -1.8898; Experimental S ([1]; single replicate of triplicate): 4.6200 and 4.2300 and 4.3600
OC[C@@H](O)CN1CCN(c2ccccc2)CC1 [Levodropropizine, reference compound] | – | – | – | – | Experimental Class [1]: 2 (Soluble (2)); Experimental Log S ([1]; single replicate of triplicate): -0.8427; Experimental S ([1]; single replicate of triplicate): 34.3300 and 33.9500; solubility thermodynamic at 48 h ([1]; 25 °C, water): 34200 µg/mL (≈ 145 mM); solubility at 48 h [1, 4]: 145 mM (≈ 34200 µg/mL); solubility at 48 h [1, 5]: 145 mM (≈ 34200 µg/mL); solubility at 48 h [1, 6]: 145 mM (≈ 34300 µg/mL)
CN1CCN(c2cc3c(cc2F)c(=O)c(C(=O)O)cn3-c2ccc(F)cc2)CC1 | – | – | -3.83 | 6 (Practically insoluble or insoluble (6)) | –
CO[C@]12CC[C@@]3(C[C@@H]1[C@@](C)(O)C(C)(C)C)[C@H]1Cc4ccc(O)c5c4[C@@]3(CCN1CC1CC1)[C@H]2O5 | -6.07 | 6 (Practically insoluble or insoluble (6)) | – | – | –
CCc1ccc(CCOc2ccc(CC3SC(=O)NC3=O)cc2)nc1 (stereo not shown) [CCc1ccc(CCOc2ccc(CC3SC(=O)NC3=O)cc2)nc1] | -6.2 | 6 (Practically insoluble or insoluble (6)) | – | – | –
COc1cc([C@@H]2c3cc4c(cc3[C@@H](O[C@@H]3O[C@@H]5CO[C@@H](C)O[C@H]5[C@H](O)[C@H]3O)C3COC(=O)[C@@H]32)OCO4)cc(OC)c1O (stereo partly shown) | – | – | -3.6 | 5 (Very slightly soluble (5)) | –
CCCNC(=O)NS(=O)(=O)c1ccc(Cl)cc1 [CCCNC(=O)NS(=O)(=O)c1ccc(Cl)cc1] | – | – | -3.17 | 5 (Very slightly soluble (5)) | –

SMILES | LogS(mol/L) [2] [mol/L] | Class [2] | LogS(mol/L) [3] [mol/L] | Class [3] | other results
COc1ccc2[nH]c([S+]([O-])Cc3ncc(C)c(OC)c3C)nc2c1 (stereo not shown) | -3.7 | 6 (Practically insoluble or insoluble (6)) | – | – | –
CCN(CC)CCOC(=O)c1ccc(N)cc1 [CCN(CC)CCOC(=O)c1ccc(N)cc1] | -2.3 | 4 (Slightly soluble (4)) | – | – | –
Cc1cc(=O)oc2cc(O[C@@H]3O[C@H](CO)[C@@H](O)[C@H](O)[C@H]3O)ccc12 [4‐methylumbelliferyl β‐D‐glucoside] | – | – | – | – | Experimental Class [1]: 4 (Slightly soluble (4)); Experimental Log S [1, 5]: −1.886 ± 0.016
NCC(CC(=O)O)c1ccc(Cl)cc1 (stereo not shown) [NCC(CC(=O)O)c1ccc(Cl)cc1] | – | – | -1.78 | 4 (Slightly soluble (4)) | –
Nc1nc2c(c(=O)[nH]1)CC=N2 [7-Deazaguanine] | – | – | – | – | Experimental Log S ([1]; single replicate of triplicate): -1.8036 and -1.6879; Experimental S ([1]; single replicate of triplicate): 2.1200 and 2.3600 and 3.0800; solubility thermodynamic at 48 h ([1]; 25 °C, water): 2520 µg/mL (≈ 16.8 mM); solubility at 48 h [1, 4]: 16.6 mM (≈ 2490 µg/mL); solubility at 48 h [1, 6]: 14.1 mM (≈ 2120 µg/mL)
O=C1[C@H](CC[C@H](O)c2ccc(F)cc2)[C@@H](c2ccc(O)cc2)N1c1ccc(F)cc1 | -4.94 | 6 (Practically insoluble or insoluble (6)) | – | – | –
CC(C)NCC(O)COc1ccc(COCCOC(C)C)cc1 (stereo not shown) [CC(C)NCC(O)COc1ccc(COCCOC(C)C)cc1] | -2.09 | 4 (Slightly soluble (4)) | – | – | –
O=C1Nc2ccc(Cl)cc2C(c2ccccc2)=NC1O (stereo not shown) [O=C1Nc2ccc(Cl)cc2C(c2ccccc2)=NC1O] | – | – | – | 6 (Practically insoluble or insoluble (6)) | –
CO/N=C(\C(=O)N[C@@H]1C(=O)N2C(C(=O)O)=C(CSc3nnnn3C)CS[C@H]12)c1csc(N)n1 | – | – | -3.27 | 5 (Very slightly soluble (5)) | –
Nc1ccc(N=Nc2ccccc2)c(N)n1 [Nc1ccc(N=Nc2ccccc2)c(N)n1] | – | – | -4.02 | 6 (Practically insoluble or insoluble (6)) | –
CCCCNc1ccc(C(=O)OCCN(C)C)cc1 [CCCCNc1ccc(C(=O)OCCN(C)C)cc1] | – | – | -3.11 | 5 (Very slightly soluble (5)) | –
CC1=NS(=O)(=O)c2cc(Cl)ccc2N1 [CC1=NS(=O)(=O)c2cc(Cl)ccc2N1] | – | – | -3.43 | 6 (Practically insoluble or insoluble (6)) | –
Cc1ccc(-c2cc(C(F)(F)F)nn2-c2ccc(S(N)(=O)=O)cc2)cc1 | – | – | -5.89 | 6 (Practically insoluble or insoluble (6)) | –
CCOc1nc2cccc(C(=O)OC(C)OC(=O)OC3CCCCC3)c2n1Cc1ccc(-c2ccccc2-c2nn[nH]n2)cc1 (stereo not shown) | – | – | -6.79 | 6 (Practically insoluble or insoluble (6)) | –
CC(=O)S[C@@H]1CC2=CC(=O)CC[C@]2(C)[C@H]2CC[C@@]3(C)[C@@H](CC[C@@]34CCC(=O)O4)[C@H]12 | – | – | -4.21 | 6 (Practically insoluble or insoluble (6)) | –
OC[C@H]1O[C@@H](n2cnc3c(O)ncnc32)C[C@@H]1O [Deoxyinosine] | – | – | – | – | Experimental Class [1]: 3 (Sparingly soluble (3)); Experimental Log S ([1]; single replicate of triplicate): -1.3814 and -1.3992; Experimental S ([1]; single replicate of triplicate): 10.1800 and 10.4800 and 10.0600; solubility thermodynamic at 48 h ([1]; 25 °C, water): 10200 µg/mL (≈ 40.6 mM); solubility at 48 h [1, 4]: 40.6 mM (≈ 10200 µg/mL); solubility at 48 h [1, 5]: 40.6 mM (≈ 10200 µg/mL); solubility at 48 h [1, 6]: 40.4 mM (≈ 10200 µg/mL)
CCCCC1C(=O)N(c2ccccc2)N(c2ccc(O)cc2)C1=O (stereo not shown) [CCCCC1C(=O)N(c2ccccc2)N(c2ccc(O)cc2)C1=O] | – | – | -3.94 | 6 (Practically insoluble or insoluble (6)) | –
O=C1CCc2ccc(OCCCCN3CCN(c4cccc(Cl)c4Cl)CC3)cc2N1 | – | – | -6.64 | 6 (Practically insoluble or insoluble (6)) | –
CC(C(=O)O)c1ccc(-c2ccccc2)c(F)c1 (stereo not shown) [CC(C(=O)O)c1ccc(-c2ccccc2)c(F)c1] | – | – | -4.34 | 6 (Practically insoluble or insoluble (6)) | –
Nc1nc(N)c2nc(-c3ccccc3)c(N)nc2n1 [Nc1nc(N)c2nc(-c3ccccc3)c(N)nc2n1] | – | – | -4.11 | 6 (Practically insoluble or insoluble (6)) | –
CCOc1ccc2nc(S(N)(=O)=O)sc2c1 [CCOc1ccc2nc(S(N)(=O)=O)sc2c1] | – | – | -3.76 | 6 (Practically insoluble or insoluble (6)) | –
CC(=O)Oc1ccccc1C(=O)O [CC(=O)Oc1ccccc1C(=O)O] | – | – | -1.67 | 4 (Slightly soluble (4)) | –
